Assay results as given in patent publication US4021434A, “Sodium β-[2,6-dimethyl-3,5-bis(ethoxycarbonyl)-4-(3-nitrophenyl)-1,4-dihyd ropyridine-1-yl]ethyl sulfate” (Yamanouchi Pharmaceutical Co., Ltd., priority 1972, dated 1977).

Columns and labels:
[1] = tested on: vertebral blood flow and coronary blood flow; assay: Effects on mean blood pressure, vertebral blood flow and coronary blood flow, intravenous, dogs anesthetized with pentobarbital (Experiment 3, Table 3); assay type: in vivo
Protocol: Effects on mean blood pressure (hereinafter referred to as MBP), vertebral blood flow (hereinafter referred to as VBF) and coronary blood flow (hereinafter referred to as Cor.BF), when administered intravenously:
By using dogs anesthetized with pentobarbital, VBF and Cor. BF were measured with an electromagnetic flowmeter. Blood pressure at the femoral artery was measured.

cerebral circulation = assay: Effect on cerebral circulation in dogs anesthetized by chloralose-urethane (Experiment 1, Table I); assay type: in vivo
in vivo = assay type: in vivo; conditions: mouse, in vivo, mice
[2] = tested on: partial oxygen pressure in coronary venous blood; assay: Effects on MBP and partial oxygen pressure (PO2) in coronary venous blood, intra-duodenal administration (Experiment 4, Table 4)
Protocol: (§1) Antagonism against hypertensive action of norepinephrine and effects on MBP and partial oxygen pressure (referred to hereinafter as PO2) in coronary venous blood, in case of intra-duodenal administration:
(§2) By using dogs anesthetized by pentobarbital, blood pressure at the femoral artery was measured. […] Antagonism against hypertensive active in case of norepinephrine administration (3g/kg i.v.) was investigated also. Drugs were administered intra-duodenally.

[3] = as above
Protocol: as §1, §2

[4] = tested on: hypertensive action of norepinephrine; assay: Antagonism against hypertensive action of norepinephrine, intra-duodenal administration (Experiment 4, Table 5); assay type: in vivo, dogs
Protocol: Drugs were administered intra-duodenally.

physchem = conditions: water
mice = assay: in vivo; assay type: in vivo
[5] = 1 mg/kg i.d., 1/2 hour post-administration
[6] = 1 mg/kg i.d., 1 hour post-administration
[7] = 1 mg/kg i.d., 2 hour post-administration
[8] = 1 mg/kg i.d., 3 hour post-administration
[9] = 1 mg/kg i.d., 5 hour post-administration
[10] = 1 mg/kg i.d., 8 hour post-administration
[11] = 1 mg/kg i.d., Pre-administration (baseline)
[12] = 10 mg/kg i.d., 1/2 hour post-administration
[13] = 10 mg/kg i.d., 1 hour post-administration
[14] = 10 mg/kg i.d., 2 hour post-administration
[15] = 10 mg/kg i.d., 3 hour post-administration
[16] = 10 mg/kg i.d., 5 hour post-administration
[17] = 10 mg/kg i.d., 8 hour post-administration
[18] = 10 mg/kg i.d., Pre-administration (baseline)

CCOC(=O)C1=C(C)NC(C)=C(C(=O)OCC)C1c1ccccc1C(F)(F)F [E, 3,5-Dicarboethoxy-1,4-dihydro-2,6-dimethyl-4-(2-trifluoromethylphenyl)pyridine]
Coronary Blood Flow Duration ([1]; 0.001 mg/kg i.v.): 10 min
Mean Blood Pressure Decrease ([1]; 0.001 mg/kg i.v.): -16 ΔmmHg
Vertebral Blood Flow Increase ([1]; 0.001 mg/kg i.v.): 74 Δ%
Coronary Blood Flow Duration ([1]; 0.01 mg/kg i.v.): 45 min
Mean Blood Pressure Decrease ([1]; 0.01 mg/kg i.v.): -44 ΔmmHg
Vertebral Blood Flow Increase ([1]; 0.01 mg/kg i.v.): 144 Δ%

CCOC(=O)C1=C(C)NC(C)=C(C(=O)OCC)C1c1cccc([N+](=O)[O-])c1 [B]
Carotid blood flow Duration (cerebral circulation; 0.01 mg/Kg i.v.): 30 min
Carotid blood flow Increase (cerebral circulation; 0.01 mg/Kg i.v.): 83%
Mean Blood Pressure Decrease (cerebral circulation; 0.01 mg/Kg i.v.): 29%
Regional Cerebral blood flow Duration (cerebral circulation; 0.01 mg/Kg i.v.): 30 min
Regional Cerebral blood flow Increase (cerebral circulation; 0.01 mg/Kg i.v.): 9.2 μV
Vertebral Blood Flow Increase (cerebral circulation; 0.01 mg/Kg i.v.): 130%
Vertebral blood flow Duration (cerebral circulation; 0.01 mg/Kg i.v.): 30 min
LD50 (in vivo; ip): 525 mg/kg
LD50 (in vivo; po): 5000 mg/kg
PO2 in coronary venous blood [2, 5]: 34.6
PO2 in coronary venous blood [2, 6]: 37.7
PO2 in coronary venous blood [2, 7]: 39.3
PO2 in coronary venous blood [2, 8]: 38.9
PO2 in coronary venous blood [2, 9]: 32.7
PO2 in coronary venous blood [2, 10]: 25.0
PO2 in coronary venous blood [2, 11]: 17.4
MBP [3, 11]: 101
MBP ([3]; 1 mg/kg i.d., change, 1/2 hour post-administration): -39
MBP ([3]; 1 mg/kg i.d., change, 1 hour post-administration): -43
MBP ([3]; 1 mg/kg i.d., change, 2 hour post-administration): -42
MBP ([3]; 1 mg/kg i.d., change, 3 hour post-administration): -32
MBP ([3]; 1 mg/kg i.d., change, 5 hour post-administration): -27
MBP ([3]; 1 mg/kg i.d., change, 8 hour post-administration): -12
Percent inhibition against increase of blood pressure caused by norepinephrin [4, 5]: 79%
Percent inhibition against increase of blood pressure caused by norepinephrin [4, 6]: 78%
Percent inhibition against increase of blood pressure caused by norepinephrin [4, 7]: 79%
Percent inhibition against increase of blood pressure caused by norepinephrin [4, 8]: 77%
Percent inhibition against increase of blood pressure caused by norepinephrin [4, 9]: 63%
Percent inhibition against increase of blood pressure caused by norepinephrin [4, 10]: 48%
Coronary Blood Flow Duration ([1]; 0.001 mg/kg i.v.): 5 min
Coronary Blood Flow Increase ([1]; 0.001 mg/kg i.v.): 58 Δ%
Mean Blood Pressure Decrease ([1]; 0.001 mg/kg i.v.): -15 ΔmmHg
Vertebral Blood Flow Increase ([1]; 0.001 mg/kg i.v.): 20 Δ%
Coronary Blood Flow Duration ([1]; 0.01 mg/kg i.v.): 30 min
Coronary Blood Flow Increase ([1]; 0.01 mg/kg i.v.): 141 Δ%
Mean Blood Pressure Decrease ([1]; 0.01 mg/kg i.v.): -35 ΔmmHg
Vertebral Blood Flow Increase ([1]; 0.01 mg/kg i.v.): 144 Δ%
water-solubility (in words) (Water-solubility): almost unsoluble in water

CCOC(=O)C1=C(C)N(CCOS(=O)(=O)[O-])C(C)=C(C(=O)OCC)C1c1cccc([N+](=O)[O-])c1.[Na+] [D, sodium β-[2,6-dimethyl-3,5-bis(ethoxycarbonyl)-4-(3-nitrophenyl)-1,4-dihydropyridine-1-yl]-ethyl sulfate]
PO2 in coronary venous blood [2, 12]: 34.7
PO2 in coronary venous blood [2, 13]: 37.2
PO2 in coronary venous blood [2, 14]: 39.7
PO2 in coronary venous blood [2, 15]: 43.3
PO2 in coronary venous blood [2, 16]: 43.2
PO2 in coronary venous blood [2, 17]: 40.0
PO2 in coronary venous blood [2, 18]: 17.8
duration time ([2]; compared with compounds B or C): much longer than those of compounds B or C
absorption in case of peroral administration ([2]; peroral (intra-duodenal), compared with compounds B or C): more easily absorbed than compounds B or C
MBP [3, 18]: 110
MBP ([3]; 10 mg/kg i.d., change, 1/2 hour post-administration): -11
MBP ([3]; 10 mg/kg i.d., change, 1 hour post-administration): -21
MBP ([3]; 10 mg/kg i.d., change, 2 hour post-administration): -32
MBP ([3]; 10 mg/kg i.d., change, 3 hour post-administration): -43
MBP ([3]; 10 mg/kg i.d., change, 5 hour post-administration): -4.3
MBP ([3]; 10 mg/kg i.d., change, 8 hour post-administration): -40
Percent inhibition against increase of blood pressure caused by norepinephrin [4, 12]: 69%
Percent inhibition against increase of blood pressure caused by norepinephrin [4, 13]: 84%
Percent inhibition against increase of blood pressure caused by norepinephrin [4, 14]: 89%
Percent inhibition against increase of blood pressure caused by norepinephrin [4, 15]: 89%
Percent inhibition against increase of blood pressure caused by norepinephrin [4, 16]: 85%
Percent inhibition against increase of blood pressure caused by norepinephrin [4, 17]: 79%
solubility (physchem): ~400 mg/mL
Coronary Blood Flow Duration ([1]; 0.1 mg/kg i.v.): 20 min
Coronary Blood Flow Increase ([1]; 0.1 mg/kg i.v.): 67 Δ%
Mean Blood Pressure Decrease ([1]; 0.1 mg/kg i.v.): -5 ΔmmHg
Vertebral Blood Flow Increase ([1]; 0.1 mg/kg i.v.): 21 Δ%
Coronary Blood Flow Duration ([1]; 0.3 mg/kg i.v.): 60 min
Coronary Blood Flow Increase ([1]; 0.3 mg/kg i.v.): 72 Δ%
Mean Blood Pressure Decrease ([1]; 0.3 mg/kg i.v.): -12 ΔmmHg
Vertebral Blood Flow Increase ([1]; 0.3 mg/kg i.v.): 75 Δ%
Coronary Blood Flow Duration ([1]; 1 mg/kg i.v.): ≥ 120 min
Coronary Blood Flow Increase ([1]; 1 mg/kg i.v.): 137 Δ%
Mean Blood Pressure Decrease ([1]; 1 mg/kg i.v.): -35 ΔmmHg
Vertebral Blood Flow Increase ([1]; 1 mg/kg i.v.): 169 Δ%
effects on cerebral and coronary blood flow and blood pressure (in words) ([1]; administered intravenously): excellent effects as increasing the cerebral blood flow and coronary blood flow and at the same time showed hypotensive activity
duration of activities (in words) ([1]; administered intravenously, compared with known compounds): prolonged for a long period of time when compared with known compounds
water-solubility (in words) (Water-solubility): excellent water-solubility

CCOC(=O)C1=C(C)N(CC(=O)O)C(C)=C(C(=O)OCC)C1c1cccc([N+](=O)[O-])c1 [sodium α-[3,5-bis(ethoxycarbonyl)-2,6-dimethyl-4-(3'-nitrophenyl)-1,4-dihydro-1-pyridinyl]acetate]
water-solubility (in words) (Water-solubility): easily soluble in water

COC(=O)C1=C(C)NC(C)=C(C(=O)OC)C1c1ccccc1[N+](=O)[O-] [C]
Carotid blood flow Duration (cerebral circulation; 0.01 mg/Kg i.v.): 30 min
Carotid blood flow Increase (cerebral circulation; 0.01 mg/Kg i.v.): 90%
Mean Blood Pressure Decrease (cerebral circulation; 0.01 mg/Kg i.v.): 28%
Regional Cerebral blood flow Duration (cerebral circulation; 0.01 mg/Kg i.v.): 30 min
Regional Cerebral blood flow Increase (cerebral circulation; 0.01 mg/Kg i.v.): 8.2 μV
Vertebral Blood Flow Increase (cerebral circulation; 0.01 mg/Kg i.v.): 120%
Vertebral blood flow Duration (cerebral circulation; 0.01 mg/Kg i.v.): 30 min

COc1ccc(Cc2nccc3cc(OC)c(OC)cc23)cc1OC [Papaverine]
Carotid blood flow Duration (cerebral circulation; 1.0 mg/Kg i.v.): 6 min
Carotid blood flow Increase (cerebral circulation; 1.0 mg/Kg i.v.): 120%
Mean Blood Pressure Decrease (cerebral circulation; 1.0 mg/Kg i.v.): 18%
Regional Cerebral blood flow Duration (cerebral circulation; 1.0 mg/Kg i.v.): 7 min
Regional Cerebral blood flow Increase (cerebral circulation; 1.0 mg/Kg i.v.): 8.2 μV
Vertebral Blood Flow Increase (cerebral circulation; 1.0 mg/Kg i.v.): 120%
Vertebral blood flow Duration (cerebral circulation; 1.0 mg/Kg i.v.): 6 min

CCOCN1C(C)=C(C(=O)OCC)C(c2cccc([N+](=O)[O-])c2)C(C(=O)OCC)=C1C [A, diethyl 1-ethoxymethyl-2,6-dimethyl-4-(3-nitrophenyl)-1,4-dihydropyridine-3,5-dicarboxylate]
Carotid blood flow Duration (cerebral circulation; 0.1 mg/Kg i.v.): 120 min
Carotid blood flow Increase (cerebral circulation; 0.1 mg/Kg i.v.): 80%
Mean Blood Pressure Decrease (cerebral circulation; 0.1 mg/Kg i.v.): 9%
Regional Cerebral blood flow Duration (cerebral circulation; 0.1 mg/Kg i.v.): 120 min
Regional Cerebral blood flow Increase (cerebral circulation; 0.1 mg/Kg i.v.): 8.6 μV
Vertebral Blood Flow Increase (cerebral circulation; 0.1 mg/Kg i.v.): 120%
Vertebral blood flow Duration (cerebral circulation; 0.1 mg/Kg i.v.): 100 min
MLD (Minimum lethal dose) (mice; i.p.): > 3000 mg/kg
MLD (Minimum lethal dose) (mice; p.o.): > 5000 mg/kg
